In patent US6214581A, “Nucleic acids encoding a functional human purinoreceptor P2X3 and P2X6, and methods of production and use thereof” (Abbott Laboratories, priority 1998, dated 2001):
Read-outs that look alike come from different tables or passages of the source.

How the values were obtained:
human P2X3 receptors = biological target: T1, human P2X3 receptors (Homo sapiens, UniProt P56373); experiment: Two-electrode voltage-clamp of Xenopus oocytes expressing recombinant human P2X3 receptor; format: cell-based; details: for rank order potency: extracellular P2 receptor agonists; for rank order potency / block of P2X3 receptors: summary; for block of ATP-induced currents: ATP 0.3 μM, antagonist superfused at least 3 minutes before agonist; for block of P2X3 receptors: P2 receptor antagonists
T1 construct: expressed in transfected cells; host or cells: Xenopus laevis oocytes (nuclear injection of the P2X3 insert in pCDNA3.1)
T1 sequence (P56373 1-397): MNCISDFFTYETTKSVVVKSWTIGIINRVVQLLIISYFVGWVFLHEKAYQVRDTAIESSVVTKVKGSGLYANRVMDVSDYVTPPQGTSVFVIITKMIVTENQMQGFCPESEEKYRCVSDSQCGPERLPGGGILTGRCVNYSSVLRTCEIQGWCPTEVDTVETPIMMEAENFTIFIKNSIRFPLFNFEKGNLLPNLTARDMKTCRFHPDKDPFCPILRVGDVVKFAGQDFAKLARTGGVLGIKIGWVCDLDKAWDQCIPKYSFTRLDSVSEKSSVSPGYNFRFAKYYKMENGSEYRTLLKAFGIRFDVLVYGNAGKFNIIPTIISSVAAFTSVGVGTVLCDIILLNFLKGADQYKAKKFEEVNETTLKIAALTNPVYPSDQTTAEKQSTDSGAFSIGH
Method: Responses were measured at a holding potential of -60 mV in modified Barth's solution containing 10 mM BaCl2 and lacking CaCl2 and MgCl2 (final pH 7.4). However, in some experiments, the cell potential was intentionally varied in order to determine the response current-voltage relationship. Agonist was applied briefly using a computer-controlled solenoid valve and a push/pull applicator positioned to within 200-400 μm from the oocyte. Responses were recorded by computer in synchrony with agonist application. Antagonists were included with agonist in the push/pull applicator and were applied to the bath by superfusion for at least 3 minutes before application of agonist. Responses were quantified by measuring the peak amplitude.
The clone was grown up and prepared in large scale using the QIAgen maxiprep DNA preparation system according to the manufacturer's instructions. T he DNA was ethanol precipitated and resuspended in TE buffer. For RNA production, the P2X3 -pCDNA3.1 construct was linearized by digestion with the restriction enzyme NotI and P2X3 messenger RNA was produced using the T7 promoter in this vector and the Ambion mMessage mMachine™ in vitro transcription kit according to the manufacturer's instructions.
For functional anaysis of human P2X3 receptors, 10 ng of human P2X3 DNA prepared as described above were injected into the nucleus of Xenopus oocytes. Oocytes were incubated in normal Barth's solution containing 100 μg/ml gentamicin for 2-7 days following injection. The response to 10 μM ATP was then recorded.

[1] = tested on: P2X receptors on dorsal root ganglion nerve terminals in the spinal cord; details: ATP-induced activation of P2X receptors on dorsal root ganglion nerve terminals; cited from earlier work
P2X4 receptor = details: cited from earlier work
P2X6 receptor = details: cited from earlier work
P2X2 = details: cited from earlier work
P2X1 = details: cited from earlier work

Structure (SMILES)	rank order potency (human P2X3 receptors)	EC50 (human P2X3 receptors)	block of P2X4 receptor (P2X4 receptor)	block of ATP-induced currents (human P2X3 receptors)	block of P2X3 receptors (human P2X3 receptors)	block of P2X6 receptor (P2X6 receptor)	further results
CSc1nc(N)c2ncn([C@@H]3O[C@H](COP(=O)(O)OP(=O)(O)OP(=O)(O)O)[C@@H](O)[C@H]3O)c2n1 [2-methylthio-ATP]	2-methylthio-ATP>ATP>α,β-methylene-ATP	–	–	–	–	–	EC50 (human P2X3 receptors; concentration-response, agonist, human P2X3 in Xenopus oocytes, ATP 0.01-1000 μM, read-out: EC50): 400 nM
Nc1ncnc2c1ncn2[C@@H]1O[C@H](COP(=O)(O)OP(=O)(O)OP(=O)(O)O)[C@@H](O)[C@H]1O [ATP]	2-methylthio-ATP>ATP>α,β-methylene-ATP	~700 nM	–	–	–	–	reversal potential (human P2X3 receptors; ATP-induced current-voltage relationships): approximately zero; current-voltage rectification (human P2X3 receptors; ATP-induced, negative membrane potentials): pronounced inward rectification; mixed-conductance cation current (human P2X3 receptors; extracellular ATP (10 μM), holding potential -60 mV, oocytes injected with human P2X3 DNA): 100-6000 nA; release of glutamate [1]: stimulates the release of glutamate
Cc1nc(N=Nc2ccc(S(=O)(=O)O)cc2S(=O)(=O)O)c(COP(=O)(O)O)c(C=O)c1O [PPADS, pyridoxal-phosphate-6-azophenyl-2',4'-disulfonic acid]	–	–	cannot be blocked	complete block	blocked	cannot be blocked	–
Cc1ccc(C(=O)Nc2ccc(S(=O)(=O)O)c3cc(S(=O)(=O)O)cc(S(=O)(=O)O)c23)cc1NC(=O)c1cccc(NC(=O)Nc2cccc(C(=O)Nc3cc(C(=O)Nc4ccc(S(=O)(=O)O)c5cc(S(=O)(=O)O)cc(S(=O)(=O)O)c45)ccc3C)c2)c1 [suramin]	–	–	cannot be blocked	complete block	blocked	cannot be blocked	–
Nc1ncnc2c1ncn2[C@@H]1O[C@H](COP(=O)(O)CP(=O)(O)OP(=O)(O)O)[C@@H](O)[C@H]1O [α,β-methylene-ATP]	2-methylthio-ATP>ATP>α,β-methylene-ATP	2100 nM	–	–	–	–	activation of P2X4 receptor (P2X4 receptor; agonist): not activated; sensitivity of P2X2 to agonist (P2X2): insensitive; sensitivity of P2X1 to agonist (P2X1): sensitive; activation of P2X6 receptor (P2X6 receptor; agonist): not activated
